According to EP4467141A1, “PYRAZOLO-QUINOLINES AS SELECTIVE INHIBITORS OF GENOTOXIC STRESS-INDUCED IKK/NF- KB PATHWAYS FOR CANCER THERAPY” (Max-Delbrück-Centrum für Molekulare Medizin in der …, priority 2023, dated 2024):

Assays:
Assay type in all cases: cell-based
U2-OS cells [1] = experiment: Cell viability assay; details: for cell viability, etoposide co-treatment: 10 µM plus etoposide 50 µM, compared to etoposide alone; for cell viability, compound alone: 10 µM, 6, 24, and 48 hours, compared to DMSO
Procedure: (§1) Fig.4: MW01 and MW05 reduce cell viability and increase p53-mediated apoptosis upon etoposide co-treatment. (A) Representative light microscopy images of U2-OS cells following treatment with DMSO, MW01 (10 µM), MW05 (10 µM), or etoposide (50 µM), or co-treatment with MW01 (10 µM) and etoposide (50 µM), or MW05 (10 µM) and etoposide (50 µM) at 24 (left) and 48 hours (right). (B) Quantification of cell viability using CellTiter-Fluor Cell Viability Assay at 6, 24, and 48 hours. Treatment with 0.1% SDS 30 minutes prior to assay was used as positive cell death control. (ns: not significant; *, **, ***: p<0.05, p<0.01, p<0.001). (C) U2-OS cells were treated with DMSO, MW01 (10 µM), MW 05 (10 µM), or etoposide (50 µM), or co-treated with MW01 (10 µM) and etoposide (50 µM), or MW05 (10 µM) and etoposide (50 µM), as indicated. After 24 hours, whole cell lysates were prepared and analyzed by Western blotting for p65 phosphorylation (S536), caspase-3 and cleaved caspase-3 (left panel) and for p53 and γH2AX) (right panel). Vinculin was used as loading control.
1×10^4 cells per well were seeded in a 96-well plate and incubated overnight. The day after, cells were treated with 10 µM of compounds under investigation, 50 µM Etoposide or 10 µM Cisplatin, alone or in combination, for appropriate time points. DMSO and 10% of Triton-X100 were used as negative and positive control respectively. Luminescent staining was performed using CellTiter-Glo Luminescent Cell Viability Assay (Promega, G7570), adding in each well a volume of CellTiter-Glo reagent equal to the volume of cell culture medium present into the well. After 1h of incubation at 37°C, luminescence was read by BioTek Cytation 1 Cell Imaging Multimode Reader (Agilent).
We hypothesized that due to the important function of the DNA double strand-induced IKK-NF-κB pathway as in anti-apoptotic signalling (Stilmann et al., 2009), both MW01 and MW05 should sensitize cells to DNA damaging agents, and therefore support their potential use to potentiate genotoxic therapies. To characterize the effect of MW01 and MW05 on cell viability, we treated cells with both compounds alone or in combination with etoposide to induce DNA lesions (Fig. 4A). […] The same effect in cell viability reduction was confirmed for MW01 and MW05 in co-treatment with cisplatin, another widely used chemotherapeutic drug. To investigate the underlying molecular causes of this phenotype, we looked at markers of NF-κB and p53 activation, DNA damage, and apoptosis after single and co-treatment with MW01, MW05, and etoposide (Fig 4C). MW01 and MW05 abrogated etoposide-stimulated p65 phosphorylation, thereby validating our inhibition of IKK and NF-κB activity. […]

[2] = tested on: NF-κB subunit p65 phosphorylation (S536); experiment: Western blot of p65 phosphorylation (S536) after DNA damage (irradiation or etoposide) in U2-OS cells; details: 10 µM plus etoposide 50 µM, 24 hours
U2-OS cells [3] = experiment: Western blot of apoptosis and DNA damage markers (cleaved caspase-3, PARP1 cleavage, p53, γH2AX) in U2-OS cells; details: for cleaved caspase-3, etoposide co-treatment: 10 µM plus etoposide 50 µM; for cleaved caspase-3, etoposide co-treatment / cleaved caspase-3, compound alone: 24 hours; for cleavage of PARP1, as apoptotic marker / cleaved caspase-3, compound alone: 10 µM; for cleavage of PARP1, as apoptotic marker: 8 hours after 10 Gy irradiation
Procedure: as §1
Fig.7: (A) Immunoprecipitation of IKKγ from HEK293 lysates pre-treated for 1 hour with DMSO, MW01 or MW05, then irradiated (IR, 20 Gy) and lysed. (B) Western blot analysis of MEF cells pre-treated with DMSO, MW01, MW05 or ATM inhibitor KU55933 and irradiated (IR, 20 Gy). Lysates were subjected to SDS-PAGE/WB. The specific IKKγ S85 band (lower band) was identified by induction following irradiation and by sensitivity to ATMi and λ- phosphatase (λ-PP) treatment. (C) Western blot analysis of U2os cells pre-treated for 1 hour with the indicated substances, irradiated (IR, 20 Gy) and whole cell lysates probed for poly(ADP)-ribose. (D) Western blot analysis of cytoplasmic and nuclear fractions from U2-OS cells for p-ATM (S 1981), after 1 hour pre-treatment with DMSO, MW01 (10 µM), or MW05 (10 µM) and 45 min following irradiation (IR, 20 Gy). PARP1 and LDHA are used as loading controls for nuclear and cytoplasmic fractions respectively. (E) mRNA expression analysis of CLK4 (top), 48 hours after transfection with siNC or siCLK4. mRNA expression analysis of NFKBIA (bottom), 48 hours after transfection with siNC or siCLK4. Values normalized to unstimulated siNC expressing cells. Statistical comparison was made between experimental conditions and paired siNC control. ns: not significant; **, ***, ****: p<0.01, p<0.001, p<0.0001. (F) Western blot analysis of p65 phosphorylation (S536) and CLK4 expression after transfection with siNC or siCLK4 in unstimulated, after 90 min irradiation (IR, 20 Gy), or after 20 min TNFα (10 ng/mL) conditions in U2-OS cells. Vinculin is used as loading control. Note that CLK4 and p-p65 were blotted on separate membranes, with respective vinculin blots underneath. (G) MW01 and MW05 are inhibitors of DNA damage-induced p65 nuclear translocation. U2-OS cells were pre-treated with DMSO, MW01 or MW05. Etoposide was added and after 2 hours cells were fixed and nuclei stained with DAPI. P65 and γH2AX were stained by immunofluorescence and images taken at a confocal Zeiss 710 LSM microscope with a 40x oil objective. (H) Western blot analysis of U2-OS cells 8 hours after 10 Gy irradiation following 1 hour pre-treatment with 10 µM DMSO, MW01, or MW05. Tubulin was used loading control. (I) mRNA expression analysis of BIRC3 in U2-OS cells 8 hours after 10 Gy irradiation following 1 hour pre-treatment with 10 µM DMSO, MW01, or MW05 and. Values were normalized to DMSO-treated unstimulated cells.
Cells were collected by scraping and lysed in Baeuerle lysis buffer supplemented with Protease (Thermo Fisher Scientific, 78429) and Phosphatase (Thermo Fisher Scientific, 78420) inhibitors after the appropriate treatment and time point. […]

In the case of `COc1ccc2c(c1OC)c(=O)n1c3ccc(O)cc3c3ccnc2c31` [MW01, 5-Hydroxy-10,11-dimethoxy-9H-benzo[c]indolo[3,2,1-ij][1,5]naphthyridin-9-one], the “cell viability, etoposide co-treatment” value (U2-OS cells [1]) was “significantly reduced cell viability after 6 hours”, the “cell viability, compound alone” value (U2-OS cells [1]) was “slightly reduced cell viability” and the “etoposide-stimulated p65 phosphorylation” value [2] was “abrogated”. For the same compound, the “cleaved caspase-3, etoposide co-treatment” value (U2-OS cells [3]) was “increased”, the “cleavage of PARP1, as apoptotic marker” value (U2-OS cells [3]) was “potentiated” and the “cleaved caspase-3, compound alone” value (U2-OS cells [3]) was “did not observe an increase”.

For `COc1ccc2cc3c(N)nn(C(=O)c4cccc(N(C)C)c4)c3nc2c1` [MW05, (3-Amino-7-methoxypyrazolo[3,4-b]quinolin-1-yl)-[3-(dimethylamino)phenyl]methanone], the “cell viability, etoposide co-treatment” value (U2-OS cells [1]) was “significant reduction after 24 hours”, the “cell viability, compound alone” value (U2-OS cells [1]) was “slightly reduced cell viability” and the “etoposide-stimulated p65 phosphorylation” value [2] was “abrogated”. The “cleaved caspase-3, etoposide co-treatment” value (U2-OS cells [3]) was “increased”, the “cleavage of PARP1, as apoptotic marker” value (U2-OS cells [3]) was “potentiated” and the “cleaved caspase-3, compound alone” value (U2-OS cells [3]) was “did not observe an increase”.
